Measurements reported in patent publication US11389423B2, “Pharmaceutical composition, excipient for the composition and use of the composition” (priority 2018, dated 2022).

Experiments:
[1] = test system: rats with MPTP microinfusion into the substantia nigra; assay: Open field test (motor activity), MPTP model; format: in vivo; conditions: oral
Description: The number of animals per group was ten (10) subjects. This number was estimated based on internationally recognized and scientifically validated protocols. The doses of the CBD-SINT formulation were determined by allometric extrapolation from the average dose used in human patients (600 mg/day, which in a 70 kg individual represents approximately 9 mg/kg), obtaining an average dose of ˜36 mg/kg CBD in rats.
For the calculation of the three doses, the intermediate dose was used as a reference, and then a higher and a lower dose was stipulated on a logarithmic scale. To stipulate the lowest dose, ⅓ of the median dose was used. For the higher dose, a safety factor of 10 times the lower dose was used. Thus, the doses of CBD-SINT used in this trial were: 12, 36 and 120 mg/kg. […]
CBD-SINT and placebo were administered orally (gavage) for 18 days prior to the administration of the neurotoxin by stereotactic surgery, and for another 10 days after surgery. After the administration of the neurotoxin, the behavioral (locomotor activity) and biochemical (brain dopamine dosage) parameters were evaluated after 24 hours and after 10 days. […]
The animals were placed on the central circle of the open field and its behavior evaluated for 5 minutes. […] Each animal was assessed individually, and the device was cleaned between animals with 5% alcohol solution (FIG. 15).

male rabbits = assay: Blood pressure measurement and heart rate; format: in vivo, New Zealand rabbits; conditions: for heart rate: anesthetized male rabbits
Description: Male New Zealand rabbits (n=6 per group) were used for pharmacological safety tests. All tests were performed orally (route recommended for humans) and the investigated parameters were determined after a single administration of CBD-SINT. CBD-SINT doses were determined by allometric extrapolation from the average dose used in human patients (25 mg/kg).
The dose of 51 mg/kg was used as the intermediate dose, stipulating a higher and a lower dose. Three dose ranges were used according to the Guide for Conducting Non-Clinical Toxicology and Pharmacological Safety Studies Necessary for Drug Development (ANVISA, 2013; Version 1.2). Thus, the doses used were 17, 51 and 170 mg/kg of CBD-SINT.
b) Blood pressure measurement, after a 6-h fasting, three doses of CBD-SINT (17, 51 and 170 mg/kg) were administered to different groups of male rabbits by gavage. Placebo was administered to the control group (1 mL/kg). 40 minutes after treatments all rabbits were anesthetized with 10 mg/kg diazepam intramuscularly combined with 115 mg/kg ketamine. Then, the animals received a bolus injection of heparin (50 IU) subcutaneously. Tracheostomy was performed to allow animals to breathe spontaneously. Then, the left carotid artery was isolated, cannulated, and connected to a pressure transducer coupled to a PowerLab recording system (Chart 5.0, ADI Instruments, Castle Hill, Australia). After 15 minutes for hemodynamic stabilization, systolic blood pressure (SBP), diastolic blood pressure (DBP) and mean arterial pressure (MAP) were recorded for another 20 min.

[2] = test system: rats with MPTP microinfusion into the substantia nigra; assay: Morris water maze (cued test/memory version), MPTP model; format: in vivo; conditions: 36 and 120 mg/kg orally, day 1 to day 10 after MPTP
Description: For the experiments with MPTP (neuroprotection), the animals were divided into the following experimental groups: • MPTP+placebo • MPTP+CBD-SINT 12 mg/kg • MPTP+CBD-SINT 36 mg/kg • MPTP+CBD-SINT 120 mg/kg • Sham+placebo • Naive
CBD-SINT and placebo were administered orally (gavage) for 18 days prior to the administration of the neurotoxin by stereotactic surgery, and for another 10 days after surgery. After the administration of the neurotoxin, the behavioral (locomotor activity) and biochemical (brain dopamine dosage) parameters were evaluated after 24 hours and after 10 days. The memory tests (Morris water maze) were performed daily from day 1 to day 10 after the administration of the neurotoxin (FIG. 13).
The rats were submitted to stereotactic surgery (stereotactic—David Kopf, model 957L) and received bilateral microinfusion of MPTP or 6-OHDA (different groups of rats) directly into the substantia nigra. For surgery, the following stereotaxic coordinates were used: anteroposterior: 5.0 mm from the bregma; mediolateral: ±2.1 mm from the midline and dorsoventral: −7.7 mm from the cranial vault (Paxinos and Watson, 1986). Then, 100 μg MPTP (diluted in 1 μL saline, with a flow of 0.33 μL/min) or 8 μg 6-OHDA (diluted in 2 μL saline with 0.2 μg/μL ascorbic acid, with a flow rate of 0.33 μL/min) were injected. […]

In the case of `C=C(C)[C@@H]1CCC(C)=C[C@H]1c1c(O)cc(CCCCC)cc1O` [CBD-SINT, Cannabidiol], the “latency time and frequency of standing compared to CBD-FITO in the same concentration” value [1] is reported as “a lower concentration had a more effective result”, the heart rate (male rabbits; 17 mg/kg oral) is reported as 285±18 bpm and the heart rate (male rabbits; 51 mg/kg oral) is reported as 279±20 bpm. The heart rate (male rabbits; 170 mg/kg oral) was 275±17 bpm, the “blood pressure levels (systolic, diastolic, mean arterial) compared to the control group” value (male rabbits; anesthetized male rabbits, 17, 51 or 170 mg/kg oral) was “did not significantly change” and the “latency time to find the platform (memory deficit)” value [2] was “prevented this deficit”.
